Results: publication PMC9603946, “On the Sensitivity of the Virion Envelope to Lipid Peroxidation” (Microbiology Spectrum, 2022)

Tests used:
[1] = system: Vero cells; experiment: Vero cell lipid peroxidation probed with liperfluo; assay type: cell-based, African green monkey; conditions: Chlorocebus sabaeus, Vero, Liperfluo probe, read-out: CP50 (the source's name)
Method: (§1) The effects of peroxidators have been commonly evaluated against purified lipids and liposomes as a proxy, but they have not been evaluated against virions ([50], [53][–][55]). We instead directly evaluated the extent of virion lipid peroxidation.
To evaluate cell lipid peroxidation using liperfluo, 7.5 × 10^3 Vero cells were seeded into each well of 96-well plates and incubated for 18 h at 37°C in 5% CO2. […] Two hours later, the cells were washed twice, and the fluorescence was evaluated in a TECAN Infinite M200 Pro at 515 nm excitation and 545 nm emission.
(§2) To evaluate the effects of a lipid soluble antioxidant, cells or virions were preloaded with vitamin E-BSA for 3 h at 37°C. Vitamin E-BSA containing medium was removed, and the cells were washed twice with DMEM. Liperfluo (20 or 10 μM for cells or virions, respectively) or C11-Bodipy (1 μM for cells or 0.1 mol% for virions) were preloaded into the cells or virions for 30 min at 37°C.
(§3) To evaluate the effects of water soluble antioxidants, liperfluo (20 μM for cells or 10 μM for virions) or C11-Bodipy (1 μM for cells or 0.1 mol% for virions) were preloaded into the cells or virions for 30 min at 37°C. […] Fluorescence was evaluated in a TECAN Infinite M200 Pro at 515 nm excitation and 545 nm emission for liperfluo or at 550 nm excitation and 580 to 630 nm emission for C11-Bodipy.

[2] = system: HSV-1; experiment: HSV-1 virion infectivity (plaquing efficiency) on HFF cells after virion pretreatment; conditions: for EC50: Human alphaherpesvirus 1, HFF
Method: The inocula were removed, and the cells were washed and then incubated at 37°C in 5% CO2 until plaques were visible and well-resolved (about 2 days), at which time they were fixed and stained with crystal violet.
HSV-1 suspensions of 20,000 plaque PFU in 250 μL DMEM were mixed 1:1 with 2-fold serial dilutions of the general peroxidators and were incubated in a water bath for 2 h at 37°C. Next, treated virions were diluted 1:100 before being adsorbed onto cells for 1 h at 37°C. The inocula were removed, and the cells were washed twice with cold DMEM. Infected cells were overlaid with DMEM supplemented with 2% (Vero) or 1% (HFF) methylcellulose and 5% FBS and were incubated at 37°C until plaques were visible and well-resolved, typically in about 2 days. Cell monolayers were fixed and stained with 1% crystal violet in 17% methanol for 18 h at RT. The cells were washed, and the plaques were counted and normalized to those produced by the vehicle treated virions.
To test the effects of lipid soluble antioxidants on virions, 10 μM vitamin E loaded onto 1% carrier BSA in the dark for 4.5 h at RT was incubated with 10^6 HSV-1 virions for 3 h at 37°C. […] The treated virions were diluted 1:100 before infecting cells. […] The mix was incubated for 2 h at 37°C, diluted 1:100, and used to infect cells. The infectivity of an aliquot of treated virions was tested via a plaque assay.

[3] = HFF cell viability after 2 h exposure to lipoperoxidators (CellTiter-Glo); conditions: human, CC50, HFF
Method: (§4) The cells were washed twice with warm DMEM before a 100 μL lipoperoxidator solution was transferred with a multichannel pipette from the plate containing the drug dilutions in technical triplicates. The cells were incubated with peroxidators for 2 h at 37°C. Then, the medium was removed, and the cells were washed twice with DMEM at 37°C. The plates were cooled down to RT, and the medium was removed. Then, 50 μL phenol red free DMEM and 50 μL CellTiter-glo Luminiscent Cell Viability Assay (Promega, G7571/2/3) were added and mixed in an orbital shaker for 2 min. Afterwards, 80 μL of the mix was transferred onto white 96-well plates and incubated for 10 min at RT for signal stabilization. The luminescence was read in the Glomax Multidetection System (Promega) with an integration time of 0.5 s.
(§5) The means of the technical triplicates were normalized to the means of the vehicle controls, analyzed via nonlinear regression dose responses, and graphed using GraphPad Prism 9.0. Three or four independent biological replicates were performed for each treatment (n = 3 or 4).
(§6) To evaluate the effects of lipid soluble antioxidants, 10 μM vitamin E was loaded onto carrier 1% BSA in the dark for 4.5 h at RT. The cells were washed twice with DMEM at 37°C and preloaded with 100 μL of 10 μM vitamin E in BSA carrier for 3 h at 37°C. The cells were washed twice again before the addition of any lipoperoxidators. Peroxidators were then added to the cells at working concentrations and incubated for 2 h at 37°C. The peroxidation solution was then removed, and the cells were washed twice with DMEM before analyzing viability. To evaluate the effects of a water soluble antioxidant, the cells were treated with 10 μM vitamin C (final concentration) simultaneously with the lipoperoxidators.

[4] = system: HFF cells; experiment: as above; conditions: HFF
Method: as §4, §5, §6

[5] = system: Vero cells; experiment: Vero cell lipid peroxidation probed with C11-Bodipy; assay type: cell-based, African green monkey; conditions: for EC50: Chlorocebus sabaeus, Bodipy probe
Method: as §1
To evaluate Vero cell lipoperoxidation with C11-Bodipy, 7.5 × 10^3 cells were seeded into each well of 96-well plates and incubated for 18 h at 37°C in 5% CO2 before preloading them with 1 μM C11-Bodipy for 30 min at 37°C. […] Two hours later, the cells were washed twice and lysed with DMSO:isopropanol. Fluorescence was evaluated in a TECAN Infinite M200 Pro at 550 nm excitation and 580 to 630 nm emission with the reading peak at 600 nm.
as §2, §3

CC(C)CC(C)(C#N)N=NC(C)(C#N)CC(C)C (centres unmarked) [AMVN, 2,2′-azobis(2,4-dimethylvaleronitrile)]
EC50 ([1]; no antioxidant): 12.6 mM
EC50 ([1]; vitamin C): 11.1 mM
EC50 ([1]; vitamin E): 16.1 mM
concentration from which virion infectivity was affected [2]: 0.7 mM
concentration giving a loss of infectivity of about 30% ([2]; 2 h at 37°C): 0.7 mM
EC50 ([2]; 2 h, no antioxidant, virions treated 2 h at 37°C): 1.1 mM
EC50 ([2]; virions preloaded with vitamin E (10 μM, BSA carrier)): 2.7 mM
EC50 ([2]; with vitamin C (10 μM)): 1.4 mM
SI, CC50/EC50 ([2]; vitamin C): 3.1
SI, CC50/EC50 ([2]; vitamin E): 1.8
CC50 at 2 h ([3]; no antioxidant, 2 h at 37°C): 4.8 mM
CC50 at 2 h ([3]; preloaded with vitamin E (10 μM, BSA carrier)): 4.9 mM
CC50 at 2 h ([3]; with vitamin C (10 μM)): 4.4 mM
concentration from which HFF viability was affected [4]: 2000 µM
PI, CC50 (antioxidant)/CC50 ([4]; vitamin C): 0.9
PI, CC50 (antioxidant)/CC50 ([4]; vitamin E): 1.0
lowest concentration affecting cell lipid peroxidation ([5]; C11-Bodipy (Fig. 8)): 2.5 mM
EC50 ([5]; no antioxidant, read-out: CP50 (concentration of peroxidant that results in 50% peroxidation in cell lipids)): 2.1 mM
EC50 ([5]; vitamin C, read-out: CP50 (the source's name)): 1.7 mM
EC50 ([5]; vitamin E, read-out: CP50 (the source's name)): 3.5 mM
